Test results reported in patent US10383861B2, “3-(1H-pyrrolo[2,3-C]pyridin-2-yl)-1H-pyrazolo[3,4-C]pyridines and therapeutic uses thereof” (Samumed, LLC, priority 2015, dated 2019).

Legend:
Assay type in all cases: cell-based
[1] = test system: primary human fibroblasts derived from IPF patients (LL29 cells); test: Inhibition of the fibrotic process: αSMA staining in TGF-β1 treated LL29 fibroblasts; details: Fibroblast; for EC50: 96 h, LL29 cells, TGF-β1 20 ng/mL, 4 days, % αSMA positive cells; for inhibition at 10 µM: read-out: percent inhibition at 10 μM
Description: Representative compounds were screened using primary human fibroblasts (derived from IPF patients) treated with TGF-β1 to determine their ability to inhibit the fibrotic process.
LL29 cells are plated at 1,500 cells/well in 80 μL/well F12 medium supplemented with 1% Fetal Bovine Serum. […] Wells treated with TGF-β1 and containing DMSO were used as controls. […] Following incubation for 4 days, SYTOX green nucleic acid stain (Life Technologies [Thermo Fisher Scientific]) was added to the wells at a final concentration of 1 μM and incubated at room temperature for 30 min.

[2] = test system: Wnt activity; test: Wnt activity screening assay, Sp5-Luc reporter gene in SW480 cells; details: Homo sapiens; for EC50: Sp5-Luc reporter, SW480 cells, overnight incubation; for inhibition at 10 µM: SW480, read-out: percent inhibition at 10 μM
From the text: The screening assay for Wnt activity is described as follows. Reporter cell lines can be generated by stably transducing cancer cell lines (e.g., colon cancer) or primary cells (e.g., IEC-6 intestinal cells) with a lentiviral construct that includes a Wnt-responsive promoter driving expression of the firefly luciferase gene.
SW480 colon carcinoma cells were transduced with a lentiviral vector expressing luciferase with a human Sp5 promoter consisting of a sequence of eight TCF/LEF binding sites. SW480 cells stably expressing the Sp5-Luc reporter gene and a hygromycin resistance gene were selected by treatment with 150 μg/mL of hygromycin for 7 days. These stably transduced SW480 cells were expanded in cell culture and used for all further screening activities. […] For Sp5-Luc reporter gene assays, the cells were plated at 4,000 cells/well in 384-well plates with medium containing 1% fetal bovine serum and incubated overnight at 37° C. and 5% CO2. Following incubation, 20 μl of BrightGlo luminescence reagent (Promega) was added to each well of the 384-well assay plates. The plates were placed on an orbital shaker for 2 min and then luminescence was quantified using the Envision (Perkin Elmer) plate reader. Readings were normalized to DMSO only treated cells, and normalized activities were utilized for EC50 calculations using the dose-response log (inhibitor) vs. response -variable slope (four parameters) nonlinear regression feature available in GraphPad Prism 5.0 (or Dotmatics).

[3] = test system: SW480 colon cancer cells; test: Cell viability assay (CellTiter-Blue) in SW480 colon cancer cells; details: Homo sapiens; for EC50: 96 h, SW480 cell viability, four days, CellTiter-Blue; for inhibition at 10 µM: SW480, read-out: percent inhibition at 10 μM
Description: Representative compounds were screened using the following assay procedure to assess the effect on cell viability as described below.
Approximately 2×10^3 SW480 colon cancer cells were seeded into each well and allowed to incubate in the presence or absence of compound for four days at 37° C./5% CO2. Eight replicates of DMSO-treated cells served as controls and cells treated with compound were performed in duplicate.
After incubation, 20 μL of CellTiter-Blue (Promega) was added to each well allowed to incubate for approximately 3 hours. This reagent was a buffered solution which contains resazurin, metabolically active cells were able to reduce rezarurin (blue) into resorufin (pink) which was highly fluorescent. This measured fluorescence was used as a readout for cell viability.

[4] = test system: IL-6; test: IL-6 inhibition in LPS-stimulated THP-1 cells (HTRF); details: Homo sapiens; for EC50: THP-1 cells, LPS 500 ng/mL, 22 hours, IL6 HTRF; for inhibition at 10 µM: THP-1, read-out: percent inhibition at 10 μM
Description: THP-1 cells were cultured in basal media with 1% FBS for 24 hours before the start of the assay. […] THP-1 cells were plated at 5000 cells/well in the 384-well plates and incubated at 37° C. for 2 h. 500 ng/mL of LPS was added after 2 hours and cells were incubated for another 22 hours at 37° C. Plates were spun in a centrifuge for 1 minute at […] and a mixture of anti-IL6 XL665, and anti-IL6 Cryptate diluted in reconstitution buffer (Cisbio Inc.) was added to each well. Following incubation for 3 hrs at room temperature, Homogeneous Time-Resolved Fluorescence (HTRF) was measured using the Envision (Perkin Elmer) at 665 nm and […]. The ratio of fluorescence at 665 nm to 620 nm was used as a readout for IL6 quantification. All samples were processed in duplicate. Readings were normalized to DMSO treated cells and normalized activities were utilized for EC50 calculations using the dose-response log (inhibitor) vs. response -variable slope (four parameters) nonlinear regression feature available in GraphPad Prism 5.0 (or Dotmatics).

| SMILES | EC50 [2] [µM] | EC50 [3] [µM] | EC50 [4] [µM] | EC50 [1] [µM] | inhibition at 10 µM [3] [%] | inhibition at 10 µM [1] [%] | inhibition at 10 µM [2] [%] | inhibition at 10 µM [4] [%] |
| --- | --- | --- | --- | --- | --- | --- | --- | --- |
| c1cc2cc(-c3n[nH]c4cnc(-c5cncc(CNCC6CCCC6)c5)cc34)[nH]c2cn1 [Compound 277, 1-(5-(3-(1H-Pyrrolo[2,3-c]pyridin-2-yl)-1H-pyrazolo[3,4-c]pyridin-5-yl)pyridin-3-yl)-N-(cyclopentylmethyl)methanamine] | 3.48 | 3.96 | 3.58 | 1.81 | – | – | – | – |
| O=C(Nc1cncc(-c2cc3c(-c4cc5c(-c6ccc(F)cc6)cncc5[nH]4)n[nH]c3cn2)c1)C1CCC1 [Compound 49, N-(5-(3-(4-(4-Fluorophenyl)-1H-pyrrolo[2,3-c]pyridin-2-yl)-1H-pyrazolo[3,4-c]pyridin-5-yl)pyridin-3-yl)cyclobutanecarboxamide] | 3.65 | > 10 | > 10 | 3.04 | 36 | – | – | 42.5 |
| Cc1ccncc1-c1cc2c(-c3cc4c(-c5ccc(F)cc5)cncc4[nH]3)n[nH]c2cn1 [Compound 33, 3-(4-(4-Fluorophenyl)-1H-pyrrolo[2,3-c]pyridin-2-yl)-5-(4-methylpyridin-3-yl)-1H-pyrazolo[3,4-c]pyridine] | 1.84 | 1.09 | 4.58 | 0.333 | – | – | – | – |
| CS(=O)(=O)NCc1cc(F)cc(-c2cncc3[nH]c(-c4n[nH]c5cnc(-c6cncc(NC(=O)C7CCCCC7)c6)cc45)cc23)c1 [Compound 499, N-(5-(3-(4-(3-Fluoro-5-(methylsulfonamidomethyl)phenyl)-1H-pyrrolo[2,3-c]pyridin-2-yl)-1H-pyrazolo[3,4-c]pyridin-5-yl)pyridin-3-yl)cyclohexanecarboxamide] | > 10 | > 10 | > 10 | > 10 | 15.5 | 0 | 11.3 | 36.6 |
| CN(C)CCOc1cncc(-c2cc3c(-c4cc5c(-c6cccs6)cncc5[nH]4)n[nH]c3cn2)c1 [Compound 707, N,N-Dimethyl-2-((5-(3-(4-(thiophen-2-yl)-1H-pyrrolo[2,3-c]pyridin-2-yl)-1H-pyrazolo[3,4-c]pyridin-5-yl)pyridin-3-yl)oxy)ethan-1-amine] | > 10 | > 10 | > 10 | 5.1 | 0 | – | 5 | 41.3 |
| CCC(=O)Nc1cncc(-c2cc3c(-c4cc5c(-c6ccc(F)cc6)cncc5[nH]4)n[nH]c3cn2)c1 [Compound 29, N-(5-(3-(4-(4-Fluorophenyl)-1H-pyrrolo[2,3-c]pyridin-2-yl)-1H-pyrazolo[3,4-c]pyridin-5-yl)pyridin-3-yl)propionamide] | > 10 | > 10 | > 10 | > 10 | 29.6 | 49.1 | 37.8 | 43 |
| Fc1ccccc1-c1cncc2[nH]c(-c3n[nH]c4cnc(-c5ccccn5)cc34)cc12 [Compound 84, 3-(4-(2-Fluorophenyl)-1H-pyrrolo[2,3-c]pyridin-2-yl)-5-(pyridin-2-yl)-1H-pyrazolo[3,4-c]pyridine] | 1.06 | 1.29 | 3.03 | 1.39 | – | – | – | – |

Second part, led by results:

| EC50 [2] [µM] | EC50 [3] [µM] | EC50 [4] [µM] | SMILES | EC50 [1] [µM] | inhibition at 10 µM [3] [%] | inhibition at 10 µM [1] [%] | inhibition at 10 µM [2] [%] | inhibition at 10 µM [4] [%] |
| --- | --- | --- | --- | --- | --- | --- | --- | --- |
| 0.977 | > 10 | 3.14 | O=C(Nc1cncc(-c2cc3c(-c4cc5ccncc5[nH]4)n[nH]c3cn2)c1)C1CC1 [Compound 272, N-(5-(3-(1H-Pyrrolo[2,3-c]pyridin-2-yl)-1H-pyrazolo[3,4-c]pyridin-5-yl)pyridin-3-yl)cyclopropanecarboxamide] | 0.467 | 29.9 | – | – | – |
| > 10 | > 10 | 3.05 | O=C(Cc1ccccc1)Nc1cncc(-c2cc3c(-c4cc5c(-c6cccnc6)cncc5[nH]4)n[nH]c3cn2)c1 [Compound 94, 2-Phenyl-N-(5-(3-(4-(pyridin-3-yl)-1H-pyrrolo[2,3-c]pyridin-2-yl)-1H-pyrazolo[3,4-c]pyridin-5-yl)pyridin-3-yl)acetamide] | > 10 | 28.9 | 0 | 12.2 | – |
| 0.679 | 3.51 | > 10 | CC(C)(C)CC(=O)Nc1cncc(-c2cc3c(-c4cc5c(-c6ccc(F)cc6)cncc5[nH]4)n[nH]c3cn2)c1 [Compound 44, N-(5-(3-(4-(4-Fluorophenyl)-1H-pyrrolo[2,3-c]pyridin-2-yl)-1H-pyrazolo[3,4-c]pyridin-5-yl)pyridin-3-yl)-3,3-dimethylbutanamide] | 0.434 | – | – | – | 16.2 |
| 2.38 | 2.98 | 0.943 | CS(=O)(=O)NCc1cc(F)cc(-c2cncc3[nH]c(-c4n[nH]c5cnc(-c6ccccn6)cc45)cc23)c1 [Compound 504, N-(3-Fluoro-5-(2-(5-(pyridin-2-yl)-1H-pyrazolo[3,4-c]pyridin-3-yl)-1H-pyrrolo[2,3-c]pyridin-4-yl)benzyl)methanesulfonamide] | 2.01 | – | – | – | – |
| > 10 | > 10 | > 10 | CC(C)CC(=O)Nc1cncc(-c2cc3c(-c4cc5c(-c6cccc(F)c6)cncc5[nH]4)n[nH]c3cn2)c1 [Compound 2, N-(5-(3-(4-(3-Fluorophenyl)-1 H-pyrrolo[2,3-c]pyridin-2-yl)-1 H-pyrazolo[3,4-c]pyridin-5-yl)pyridin-3-yl)-3-methylbutanamide] | 2.23 | 25.4 | – | 5.6 | 37.2 |
| > 10 | > 10 | > 10 | c1cncc(-c2cncc3[nH]c(-c4n[nH]c5cnc(C6CCNCC6)cc45)cc23)c1 [Compound 553, 5-(Piperidin-4-yl)-3-(4-(pyridin-3-yl)-1H-pyrrolo[2,3-c]pyridin-2-yl)-1H-pyrazolo[3,4-c]pyridine] | 1.19 | 11 | – | 8.3 | 18.1 |
| > 10 | > 10 | > 10 | O=C(Nc1cncc(-c2cc3c(-c4cc5c(-c6ccncc6)cncc5[nH]4)n[nH]c3cn2)c1)c1ccccc1 [Compound 123, N-(5-(3-(4-(Pyridin-4-yl)-1H-pyrrolo[2,3-c]pyridin-2-yl)-1H-pyrazolo[3,4-c]pyridin-5-yl)pyridin-3-yl)benzamide] | > 10 | 20.9 | 53.6 | 8 | 19 |
| 0.975 | 0.693 | 0.805 | CC(C)(C)CC(=O)Nc1cncc(-c2cc3c(-c4cc5c(-c6ccccc6F)cncc5[nH]4)n[nH]c3cn2)c1 [Compound 72, N-(5-(3-(4-(2-Fluorophenyl)-1H-pyrrolo[2,3-c]pyridin-2-yl)-1H-pyrazolo[3,4-c]pyridin-5-yl)pyridin-3-yl)-3,3-dimethylbutanamide] | 0.468 | – | – | – | – |
| 2.33 | 1.26 | 9.84 | CN(C)c1cncc(-c2cc3c(-c4cc5c(-c6cccc(F)c6)cncc5[nH]4)n[nH]c3cn2)c1 [Compound 7, 5-(3-(4-(3-Fluorophenyl)-1H-pyrrolo[2,3-c]pyridin-2-yl)-1H-pyrazolo[3,4-c]pyridin-5-yl)-N,N-dimethylpyridin-3-amine] | 1.04 | – | – | – | – |
